Measured values as given in ChEMBL document CHEMBL1201862, “PubChem BioAssay data set” (2004).
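A five-concentration, 48-hour dose response in 96-well plates underlies each endpoint, interpolated linearly between surrounding concentrations. At the GI50, growth is halved.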 The source made the active and inactive calls. No stated cut-off is given here; in the data, active = GI50 up to about 1.1 µM and inactive = higher.

How the values were obtained:
Test in all cases: inhibition of tumour cell growth, NCI panel, 48 h
HOP-92 = test system: HOP-92
UACC-62 = test system: UACC-62
NCI-H226 = test system: NCI-H226
Hs-578T = test system: Hs-578T
SK-MEL-2 = test system: SK-MEL-2
SF-295 = test system: SF-295
U-251 = test system: U-251
MDA-N = test system: MDA-N
PC-3 = test system: PC-3
HCT-116 = test system: HCT-116
SK-MEL-5 = test system: SK-MEL-5
NCI-H522 = test system: NCI-H522
CAKI-1 = test system: CAKI-1
LOX IMVI = test system: LOX IMVI
A498 = test system: A498
OVCAR-4 = test system: OVCAR-4
BT-549 = test system: BT-549
SF-539 = test system: SF-539
M14 = test system: M14
CCRF-CEM = test system: CCRF-CEM
HCC 2998 = test system: HCC 2998
HCT-15 = test system: HCT-15
MDA-MB-231 = test system: MDA-MB-231
UACC-257 = test system: UACC-257
TK-10 = test system: TK-10
KM12 = test system: KM12
NCI-H23 = test system: NCI-H23
RPMI-8226 = test system: RPMI-8226
MOLT-4 = test system: MOLT-4
SF-268 = test system: SF-268
OVCAR-8 = test system: OVCAR-8
SK-MEL-28 = test system: SK-MEL-28
OVCAR-3 = test system: OVCAR-3
OVCAR-5 = test system: OVCAR-5
SN12C = test system: SN12C
K562 = test system: K562
SNB-19 = test system: SNB-19
SNB-75 = test system: SNB-75
NCI/ADR-RES = test system: NCI/ADR-RES
ACHN = test system: ACHN
T47D = test system: T47D
786-0 = test system: 786-0
EKVX = test system: EKVX
HT-29 = test system: HT-29
RXF 393 = test system: RXF 393
IGROV-1 = test system: IGROV-1
SR = test system: SR
A549 = test system: A549
SW-620 = test system: SW-620
HOP-62 = test system: HOP-62
SK-OV-3 = test system: SK-OV-3
UO-31 = test system: UO-31
DU-145 = test system: DU-145
HL-60 = test system: HL-60
Malme-3M = test system: Malme-3M
NCI-H460 = test system: NCI-H460
MDA-MB-435 = test system: MDA-MB-435
COLO 205 = test system: COLO 205
MCF7 = test system: MCF7

`COc1cccc(C2SCC(=O)N2c2ccc(-n3c(-c4ccccc4)nc4ccccc4c3=O)cc2)c1OC` (stereo unspecified) was tested, and the GI50 (HOP-92) was > 100 µM (inactive), the GI50 (UACC-62) was > 38.5 µM (inactive) and the GI50 (NCI-H226) was > 87.9 µM (inactive). For the same compound, the GI50 (Hs-578T) was > 100 µM (inactive), the GI50 (SK-MEL-2) was > 100 µM (inactive) and the GI50 (SF-295) was > 100 µM (inactive). The GI50 (U-251) was > 100 µM (inactive), the GI50 (MDA-N) was > 100 µM (inactive) and the GI50 (PC-3) was > 100 µM (inactive). For the same compound, the GI50 (HCT-116) was > 100 µM (inactive), the GI50 (SK-MEL-5) was > 100 µM (inactive) and the GI50 (NCI-H522) was > 100 µM (inactive). The GI50 (CAKI-1) was > 100 µM (inactive), the GI50 (LOX IMVI) was > 100 µM (inactive) and the GI50 (A498) was > 100 µM (inactive). For the same compound, the GI50 (OVCAR-4) was > 100 µM (inactive), the GI50 (BT-549) was > 100 µM (inactive) and the GI50 (SF-539) was > 100 µM (inactive). The GI50 (M14) was > 100 µM (inactive), the GI50 (CCRF-CEM) was > 100 µM (inactive) and the GI50 (HCC 2998) was > 100 µM (inactive). The GI50 (HCT-15) was over 100 µM, the GI50 (MDA-MB-231) was > 100 µM (inactive) and the GI50 (UACC-257) was > 100 µM (inactive). For the same compound, the GI50 (TK-10) was > 100 µM (inactive), the GI50 (KM12) was > 100 µM (inactive) and the GI50 (NCI-H23) was > 100 µM (inactive). The GI50 (RPMI-8226) was > 100 µM (inactive), the GI50 (MOLT-4) was > 100 µM (inactive) and the GI50 (SF-268) was > 100 µM (inactive). For the same compound, the GI50 (OVCAR-8) was > 100 µM (inactive), the GI50 (SK-MEL-28) was > 100 µM (inactive) and the GI50 (OVCAR-3) was > 88.7 µM (inactive). For the same compound, the GI50 (OVCAR-5) was > 100 µM (inactive), the GI50 (SN12C) was > 100 µM (inactive) and the GI50 (K562) was > 100 µM (inactive). For the same compound, the GI50 (SNB-19) was > 100 µM (inactive), the GI50 (SNB-75) was > 60.5 µM (inactive) and the GI50 (NCI/ADR-RES) was > 100 µM (inactive). The GI50 (ACHN) was > 100 µM (inactive), the GI50 (T47D) was 31.6 µM (inactive) and the GI50 (786-0) was > 100 µM (inactive). For the same compound, the GI50 (EKVX) was > 100 µM (inactive), the GI50 (HT-29) was > 100 µM (inactive) and the GI50 (RXF 393) was > 100 µM (inactive). The GI50 (IGROV-1) was > 100 µM (inactive), the GI50 (SR) was > 100 µM (inactive) and the GI50 (A549) was > 100 µM (inactive). For the same compound, the GI50 (SW-620) was > 100 µM (inactive), the GI50 (HOP-62) was > 100 µM (inactive) and the GI50 (SK-OV-3) was > 100 µM (inactive). For the same compound, the GI50 (UO-31) was > 43.7 µM (inactive), the GI50 (DU-145) was > 100 µM (inactive) and the GI50 (HL-60) was > 100 µM (inactive). The GI50 (Malme-3M) was > 100 µM (inactive), the GI50 (NCI-H460) was > 100 µM (inactive) and the GI50 (MDA-MB-435) was > 100 µM (inactive). The GI50 (COLO 205) was > 100 µM (inactive).

`NNC(=O)c1ccccc1Nc1ccccc1C(=O)NN` was tested, and the GI50 (UACC-62) was > 100 µM (inactive), the GI50 (NCI-H226) was > 100 µM (inactive) and the GI50 (Hs-578T) was 92.9 µM (inactive). For the same compound, the GI50 (SK-MEL-2) was > 100 µM (inactive), the GI50 (SF-295) was > 100 µM (inactive) and the GI50 (U-251) was > 100 µM (inactive). The GI50 (MDA-N) was > 100 µM (inactive), the GI50 (PC-3) was > 100 µM (inactive) and the GI50 (HCT-116) was > 100 µM (inactive). For the same compound, the GI50 (SK-MEL-5) was > 100 µM (inactive), the GI50 (NCI-H522) was > 100 µM (inactive) and the GI50 (CAKI-1) was > 100 µM (inactive). For the same compound, the GI50 (LOX IMVI) was > 100 µM (inactive), the GI50 (OVCAR-4) was > 100 µM (inactive) and the GI50 (BT-549) was > 100 µM (inactive). The GI50 (SF-539) was > 100 µM (inactive), the GI50 (M14) was > 100 µM (inactive) and the GI50 (CCRF-CEM) was > 100 µM (inactive). For the same compound, the GI50 (HCC 2998) was > 100 µM (inactive), the GI50 (HCT-15) was over 100 µM and the GI50 (MDA-MB-231) was > 100 µM (inactive). The GI50 (UACC-257) was > 100 µM (inactive), the GI50 (TK-10) was > 100 µM (inactive) and the GI50 (KM12) was > 100 µM (inactive). The GI50 (NCI-H23) was > 100 µM (inactive), the GI50 (RPMI-8226) was > 100 µM (inactive) and the GI50 (MOLT-4) was > 100 µM (inactive). For the same compound, the GI50 (SF-268) was > 100 µM (inactive), the GI50 (MCF7) was > 100 µM (inactive) and the GI50 (OVCAR-8) was > 100 µM (inactive). The GI50 (SK-MEL-28) was > 100 µM (inactive), the GI50 (OVCAR-3) was > 100 µM (inactive) and the GI50 (OVCAR-5) was > 100 µM (inactive). For the same compound, the GI50 (SN12C) was > 100 µM (inactive), the GI50 (K562) was > 100 µM (inactive) and the GI50 (SNB-19) was > 100 µM (inactive). The GI50 (SNB-75) was > 100 µM (inactive), the GI50 (NCI/ADR-RES) was > 100 µM (inactive) and the GI50 (ACHN) was > 100 µM (inactive). The GI50 (T47D) was > 100 µM (inactive), the GI50 (786-0) was > 100 µM (inactive) and the GI50 (EKVX) was > 100 µM (inactive). For the same compound, the GI50 (HT-29) was > 100 µM (inactive), the GI50 (RXF 393) was > 100 µM (inactive) and the GI50 (IGROV-1) was > 100 µM (inactive). For the same compound, the GI50 (A549) was > 100 µM (inactive), the GI50 (SW-620) was > 100 µM (inactive) and the GI50 (HOP-62) was > 100 µM (inactive). For the same compound, the GI50 (SK-OV-3) was > 100 µM (inactive), the GI50 (UO-31) was > 100 µM (inactive) and the GI50 (DU-145) was > 100 µM (inactive). For the same compound, the GI50 (HL-60) was > 100 µM (inactive), the GI50 (Malme-3M) was > 100 µM (inactive) and the GI50 (NCI-H460) was > 100 µM (inactive). For the same compound, the GI50 (MDA-MB-435) was > 100 µM (inactive) and the GI50 (COLO 205) was > 100 µM (inactive).

With `NC(=O)C1N=NSC1NC(=O)c1ccc([N+](=O)[O-])cc1` (stereo unspecified) the GI50 (UACC-62) was 49.4 µM (inactive), the GI50 (NCI-H226) was 54.8 µM (inactive) and the GI50 (Hs-578T) was 75 µM (inactive). The GI50 (SK-MEL-2) was 13.5 µM (inactive), the GI50 (SF-295) was 32.2 µM (inactive) and the GI50 (U-251) was 36.6 µM (inactive). For the same compound, the GI50 (MDA-N) was 67.3 µM (inactive), the GI50 (PC-3) was 26.6 µM (inactive) and the GI50 (HCT-116) was 47.5 µM (inactive). The GI50 (SK-MEL-5) was 22 µM (inactive), the GI50 (CAKI-1) was 63.5 µM (inactive) and the GI50 (OVCAR-4) was 43.3 µM (inactive). For the same compound, the GI50 (BT-549) was 48.2 µM (inactive), the GI50 (M14) was 56.4 µM (inactive) and the GI50 (CCRF-CEM) was 43.5 µM (inactive). The GI50 (HCC 2998) was 37.6 µM (inactive), the GI50 (HCT-15) was 53.8 µM and the GI50 (MDA-MB-231) was 52.2 µM (inactive). For the same compound, the GI50 (UACC-257) was > 100 µM (inactive), the GI50 (TK-10) was 54.8 µM (inactive) and the GI50 (KM12) was 49.9 µM (inactive). For the same compound, the GI50 (NCI-H23) was 38.7 µM (inactive), the GI50 (RPMI-8226) was 26.4 µM (inactive) and the GI50 (MOLT-4) was 49.2 µM (inactive). For the same compound, the GI50 (SF-268) was 54.7 µM (inactive), the GI50 (MCF7) was 43.5 µM (inactive) and the GI50 (OVCAR-8) was 53.6 µM (inactive). The GI50 (SK-MEL-28) was > 100 µM (inactive), the GI50 (OVCAR-3) was 30.4 µM (inactive) and the GI50 (OVCAR-5) was > 100 µM (inactive). The GI50 (SN12C) was 47.5 µM (inactive), the GI50 (K562) was 62.7 µM (inactive) and the GI50 (SNB-19) was 50.6 µM (inactive). The GI50 (SNB-75) was 67.3 µM (inactive), the GI50 (NCI/ADR-RES) was 36.6 µM (inactive) and the GI50 (ACHN) was 59.4 µM (inactive). For the same compound, the GI50 (T47D) was 26.3 µM (inactive), the GI50 (786-0) was > 100 µM (inactive) and the GI50 (EKVX) was 30 µM (inactive). For the same compound, the GI50 (HT-29) was 36.9 µM (inactive), the GI50 (RXF 393) was 43.5 µM (inactive) and the GI50 (IGROV-1) was 22.4 µM (inactive). The GI50 (A549) was 27 µM (inactive), the GI50 (SW-620) was 50.6 µM (inactive) and the GI50 (HOP-62) was > 100 µM (inactive). The GI50 (SK-OV-3) was 58.9 µM (inactive), the GI50 (UO-31) was 40.6 µM (inactive) and the GI50 (DU-145) was 78.5 µM (inactive). For the same compound, the GI50 (Malme-3M) was 60.3 µM (inactive), the GI50 (NCI-H460) was 34.4 µM (inactive) and the GI50 (MDA-MB-435) was 46.5 µM (inactive). For the same compound, the GI50 (COLO 205) was 44.5 µM (inactive).
